Results on 1 substance are retold here after US20220133694A1, “PHARMACEUTICAL USE” (Novartis AG, priority 2015, published 2022).

In the data set the test system is heart failure patients (NYHA class II-IV) with reduced ejection fraction. The settings on record: randomized patients.

Experimental: Patients enrolled were stratified based on the pre-study level of RAAS inhibition (high/low).
Patients were stratified based on the level of RAAS inhibition as follows: • High RAAS stratum: Patients receiving >160 mg of valsartan or >10 mg total daily dose of enalapril, or equivalent doses of other ARBs/ACEls, respectively, at screening • Low RAAS stratum: Patients receiving ≤160 mg of valsartan or ≤10 mg total daily dose of enalapril, or equivalent doses of other ARBs/ACEls, respectively, at screening. This stratum also included patients who were not on an ACEI or an ARB 4 weeks prior to screening (i.e., ACEI/ARB-naive patients)
Patients who met all the entry criteria and completed the ACEI-free washout period (if required) attended Visit 2 within approximately one week after Visit 1. […] Eligible hospitalized patients also took the study medication while they were still in the hospital and before they were discharged. Patients took the study medication in addition to their background HF therapy, except for ACEIs and ARBs, which were replaced by the study medication.

Consider “trisodium [3-((1S,3R)-1-biphenyl-4-ylmethyl-3-ethoxycarbonyl-1-butylcarbamoyl) propionate-(S)-3′-methyl-2′-(pentanoyl{2″-(tetrazol-5-ylate)biphenyl-4′-ylmethyl}amino)butyrate]hemipentahydrate [LCZ696]”, for which the “most common reasons for dose adjustment/interruption or permanent discontinuation (AEs)” value is on record as “hypotension, renal dysfunction or hyperkalemia”.
